Laboratory results reported in US9505773B2 (Isomerase Therapeutics Limited, priority 2013, dated 2016).

What was measured:
[1] = molecular target: FKBP12 (Homo sapiens (Human), UniProt P62942); assay: FKBP12 PPlase assay; format: biochemical; details: for inhibition at 1 µM: read-out: inhibition of FKBP12 at 1 uM; for Ki: FKBP12 PPlase assay, 6 concentrations in duplicate, data fitted to a Ki curve
Description: The first order rate equation was fitted to the absorbance data to obtain a rate constant. A catalytic rate (Kenz) was calculated from the enzymatic rate minus the background rate. Kenz v inhibitor concentration was plotted to obtain the Ki value. […] All compounds were assayed at 6 concentrations in duplicate and the data fitted to a Ki curve to afford a Ki value with standard error (SE).

[2] = tested on: murine T cell proliferation (PLP peptide-stimulated lymph node cells; mTOR-driven); assay: Murine PLP T cell proliferation assay (PLP assay); format: cell-based; details: for IC50: Mus musculus, PLP T-cell proliferation assay; for Ratio (PLP/FKBP*): PLP IC50 / FKBP12 Ki (Ki values from Example 19)
Description: Murine PLP T Cell Proliferation Assay
Activity of mTOR inhibitors was measured in two different antigen-specific murine T cell proliferation assays (as described in Young et al., 2000). […] In a second type of assay, lymph nodes obtained from PLP TCR transgenic mice are simulated with PLP peptide in culture in a primary stimulation assay.

Sequence of FKBP12 (P62942 whole entry, species assumed): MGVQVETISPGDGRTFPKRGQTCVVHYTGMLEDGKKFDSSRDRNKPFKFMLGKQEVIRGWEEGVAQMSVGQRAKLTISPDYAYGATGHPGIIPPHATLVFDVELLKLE

| SMILES | inhibition at 1 µM [1] [%] | IC50 [2] [nM] | Ki [1] [nM] | Ratio (PLP/FKBP*) [2] |
| --- | --- | --- | --- | --- |
| CO[C@@H](C[C@@H]1CC[C@@H](C)[C@](O)(CC(=O)N2CCCC[C@H]2C(=O)O)O1)/C(C)=C/C=C/C=C/[C@@H](C)C[C@H]1CC[C@H](O)CC1 [Compound 3] | 25 | 1450 |  |  |
| CO[C@H]1C[C@@H]2CC[C@@H](C)[C@@](O)(O2)C(=O)C(=O)N2CCCC[C@H]2C(=O)OC([C@H](C)C[C@H]2CC[C@H](O)CC2)C[C@@H](O)CC(=O)[C@H](C)C[C@H](C)/C=C/C=C/C=C/1C (some centres unmarked) [Compound 4] |  | 4460 |  |  |
| CO[C@H]1C[C@@H]2CC[C@@H](C)[C@@](O)(O2)C(=O)C(=O)N2CCCC[C@H]2C(=O)OC([C@H](C)C[C@H]2CC[C@H](O)CC2)C/C=C(\C)[C@@H](O)CC(=O)[C@H](C)C[C@H](C)/C=C/C=C/C=C/1C (some centres unmarked) [Compound 5] |  |  | 7.9 |  |
| CO[C@H]1C[C@@H]2CC[C@@H](C)[C@](O)(CC(=O)N3CCCC[C@H]3C(=O)OC([C@H](C)C[C@H]3CC[C@H](O)CC3)CC(=O)[C@H](C)C[C@H](C)/C=C/C=C/C=C/1C)O2 (some centres unmarked) [Compound 6] |  | 2620 | 370 | 7.095 |
| CO[C@H]1C[C@@H]2CC[C@@H](C)[C@@](O)(O2)C(=O)C(=O)N2CCCC[C@H]2C(=O)OC([C@H](C)C[C@@H]2CC[C@@H](O)[C@H](OC)C2)C/C=C(\C)[C@@H](O)CC(=O)[C@H](C)C[C@H](C)/C=C/C=C/C=C/1C (some centres unmarked) [Compound 8] |  | 490 | 5.9 | 83.05 |
| CO[C@H]1C[C@@H]2CC[C@@H](C)[C@](O)(CC(=O)N3CCCC[C@H]3C(=O)OC([C@H](C)C[C@@H]3CC[C@@H](O)[C@H](O)C3)C/C=C(\C)[C@@H](O)CC(=O)[C@H](C)C[C@H](C)/C=C/C=C/C=C/1C)O2 (some centres unmarked) [Compound 9] |  |  | 180 |  |
| CO[C@H]1C[C@@H]2CC[C@@H](C)[C@@](O)(O2)C(=O)C(=O)N2CCCC[C@H]2C(=O)OC([C@H](C)C[C@@H]2CC[C@@H](O)[C@H](O)C2)C/C=C(\C)[C@@H](O)CC(=O)[C@H](C)C[C@H](C)/C=C/C=C/C=C/1C (some centres unmarked) [Compound 10] |  | 14000 | 4.2 | 3338.333 |
| CO[C@H]1C[C@@H]2CC[C@@H](C)[C@](O)(CC(=O)N3CCCC[C@H]3C(=O)O[C@H](/C(C)=C/CC(O)[C@H](C)C[C@@H]3CC[C@@H](O)[C@H](O)C3)CC(=O)[C@H](C)C[C@H](C)/C=C/C=C/C=C/1C)O2 (some centres unmarked) [Compound 11] |  | 4180 | 430 | 9.721 |
| CO[C@H]1C[C@@H]2CC[C@@H](C)[C@@](O)(O2)C(=O)C(=O)N2CCCC[C@H]2C(=O)OC([C@H](C)Cc2ccc(CO)s2)C/C=C(\C)[C@@H](O)CC(=O)[C@H](C)C[C@H](C)/C=C/C=C/C=C/1C (some centres unmarked) [Compound 12] |  | 2860 | 9.5 | 301.5789 |
| CO[C@H]1C[C@@H]2CC[C@@H](C)[C@@](O)(O2)C(=O)C(=O)N2CCCC[C@H]2C(=O)OC([C@H](C)Cc2ccncc2)C/C=C(\C)[C@@H](O)CC(=O)[C@H](C)C[C@H](C)/C=C/C=C/C=C/1C (some centres unmarked) [Compound 13] |  | 6590 | 13 | 506.6154 |
| CO[C@H]1C[C@@H]2CC[C@@H](C)[C@@](O)(O2)C(=O)C(=O)N2CCCC[C@H]2C(=O)O[C@H]([C@H](C)C[C@H]2CC[C@H](O)CC2)CC(O)CC(=O)[C@H](C)/C=C(\C)[C@@H](O)CC(=O)[C@@H](C)C[C@H](C)/C=C/C=C/C=C/1C (some centres unmarked) [Compound 14] |  |  | 6.5 |  |
| CO[C@H]1C[C@@H]2CC[C@@H](C)[C@@](O)(O2)C(=O)C(=O)N2CCCC[C@H]2C(=O)OC2CCC(CC2)C(=O)[C@H](C)C[C@H](C)/C=C/C=C/C=C/1C [Compound 15] | 31 |  |  |  |
| C\C1=C/C=C/C=C/[C@@H](C)C[C@@H](C)C(=O)C2CCC(CC2)OC(=O)[C@@H]2CCCCN2C(=O)C(=O)[C@]2(O)O[C@@H](CC[C@H]2C)C[C@@H]1O [Compound 16] |  |  | 460 |  |
| CO[C@H]1C[C@@H]2CC[C@@H](C)[C@](O)(CC(=O)N3CCCC[C@H]3C(=O)O[C@H]([C@H](C)C[C@H]3CC[C@H](O)CC3)C/C=C(\C)[C@@H](O)CC(=O)[C@H](C)C[C@H](C)/C=C/C=C/C=C/1C)O2 [Compound 18] |  |  | 45 |  |
| C/C1=C\C[C@@H]([C@H](C)C[C@H]2CC[C@H](O)CC2)OC(=O)[C@@H]2CCCCN2C(=O)C(=O)[C@]2(O)O[C@@H](CC[C@H]2C)C[C@H](O)/C(C)=C/C=C/C=C/[C@@H](C)C[C@@H](C)C(=O)C[C@@H]1O [Compound 19] |  |  | 7.7 |  |
| CO[C@H]1C[C@@H]2CC[C@@H](C)[C@@](O)(O2)C(=O)C(=O)N2CCCC[C@H]2C(=O)O[C@H]([C@H](C)C[C@H]2CC[C@H](O)CC2)C/C=C(\C)[C@@H](O)[C@@H](O)C(=O)[C@H](C)C[C@H](C)/C=C/C=C/C=C/1C [Compound 20] |  |  | 18 |  |
| CO[C@@H](C[C@@H]1CC[C@@H](C)[C@](O)(C(=O)C(=O)N2CCCC[C@H]2C(=O)O[C@@H](C/C=C(\C)C=O)[C@H](C)C[C@H]2CC[C@H](O)CC2)O1)/C(C)=C/C=C/C=C/[C@@H](C)C[C@@H](C)C(=O)CO [Compound 22] |  |  | 12 |  |
| CC/C1=C\CC(/C(C)=C/C(C)C(C)O)OC(=O)C2CCCCN2C(=O)C(=O)C2(O)OC(CCC2C)CC(O)C(C)C(O)CC(O)CC(O)/C(C)=C/C(C)CC(C)C1O (centres unmarked) [Meridamycin] |  |  | 10 |  |
| CO[C@H]1C[C@@H]2CC[C@@H](C)[C@@](O)(O2)C(=O)C(=O)N2CCCC[C@H]2C(=O)O[C@H]([C@H](C)C[C@@H]2CC[C@@H](O)[C@H](OC)C2)CC(=O)[C@H](C)/C=C(\C)[C@@H](O)[C@@H](OC)C(=O)[C@H](C)C[C@H](C)/C=C/C=C/C=C/1C [Rapamycin, rapamycin, reference compound] |  | 0.024 |  |  |
